{
  "source": "patent US12059397B2",
  "about": "(METIMEDI PHARMACEUTICALS CO., LTD., priority 2016, dated 2024)",
  "key": {"HCT116 cells": {"system": "HCT116 cells", "test": "In vivo liver metastasis after intra-splenic injection", "parameters": "species or system Mice", "conditions": "subcutaneous injection twice a day for 3 weeks; FIG. 11", "method": "Cells were maintained in RPMI-1640 medium (Welgene, Daegu, South Korea) supplemented with 10% fetal bovine serum (Welgene, Daegu, South Korea), 100 IU/ml penicillin, and 100 μg/ml streptomycin (Welgene, Daegu, South Korea) in a humidified atmosphere of 5% CO2, at 37° C. Calcium lactate (CaLa) was purchased from Sigma-Aldrich (St Louis, MO, USA).\nMice were anesthetized with a 2% isoflurane. 5×10^6 of HCT116 cells were suspended in the 100 μL phosphate buffered saline for one injection. A small left abdominal flank incision was made and the spleen was exteriorized for the intra-splenic injection. The prepared cells were injected into the spleen with a 30-gauge needle. To prevent tumor cell leakage and bleeding, a cotton swab was held over the site of injection for 1 min. The injected spleen was returned to the abdomen and the wound was sutured with 6-0 black silk."}, "cancer cells [1]": {"system": "cancer cells", "conditions": "in vivo; cited from earlier work"}, "[2]": {"test": "Stability of calcium lactate in water and acidic conditions", "assay_type": "physicochemical", "excerpt": "However, the drug is very unstable in water, especially under acidic conditions, and rapidly degraded. Therefore, it is difficult for this drug to show pharmaceutical efficacy with a general oral formulation because it is readily decomposed in the acidic environment of the stomach upon oral administration. Calcium lactate is also not absorbed when it reaches the large intestines because it is destroyed by enzymes present in the large intestine."}, "cancer cells [3]": {"system": "cancer cells", "conditions": "cited from earlier work"}, "cancer cell lines": {"system": "cancer cell lines", "conditions": "cited from earlier work"}, "[4]": {"system": "Human colorectal cancer cells", "test": "In vivo efficacy of long-acting formulation, flank xenograft", "parameters": "species or system Balb/c nude mice", "conditions": "2 mg/kg subcutaneously B.I.D. for 21 days; FIG. 8", "method": "Human colorectal cancer cells (5×10^6) were transplanted to the flank of Balb/c nude mice. […] Group 2: […] Group 3: […] Group 4: […] Tumor volume was measured 3 times per week until the end of experiment and was recorded by calculating minimum (M) and maximum (L) linear size of the tumors (L×M^2/2). Tumor weight was measured after autopsy on the final day of experiment. Tumor mass was sectioned to 5 μm and then stained with hematoxylin and eosin for histological analysis."}},
  "data": [
    {"compound": "CC(O)C(=O)[O-].CC(O)C(=O)[O-].[Ca+2]", "note": "(stereo not shown) [calcium lactate]", "values": [
      {"measurement": "inflammatory response in developed tumor", "setting": "HCT116 cells", "result": "induced"},
      {"measurement": "liver metastasis as compared to the control", "setting": "HCT116 cells", "result": "suppressed"},
      {"measurement": "growth of cancer cells in animal models", "setting": "cancer cells [1]", "result": "suppressed"},
      {"measurement": "stability in water, especially under acidic conditions", "setting": "[2]", "result": "very unstable"},
      {"measurement": "levels of growth, metastasis (migration) and tube formation of the cancer cells", "setting": "cancer cells [3]", "result": "decreased"},
      {"measurement": "levels of lactate, LDH-B, pyruvate, PDH and α-KG in cells", "setting": "cancer cells [3]", "result": "increased"},
      {"measurement": "levels of β-catenin, PARP, HIF-1α and VEGF in cells", "setting": "cancer cells [3]", "result": "decreased"},
      {"measurement": "anticancer effect in combination with conventional radiation", "setting": "cancer cell lines; decreased amount of radiation", "result": "equivalent anticancer effect"},
      {"measurement": "anticancer effect in combination with well-known anticancer drugs", "setting": "cancer cell lines; decreased concentration of the anticancer drugs", "result": "higher anticancer effect"},
      {"measurement": "tumor size versus control group", "setting": "[4]", "result": "clearly smaller than the control group"}
    ]}
  ]
}
